Drawing on paper PMC4314399 (Cell calcium, 2014), this text covers IC50 for two substances.

Assay [1] deals with T1, Orai1 (Homo sapiens, UniProt Q13586+Q96D31). Description: fura-2 Ca2+ add-back. It is filed as cell-based.
Assay [2] addresses T1, Orai1. Kind of assay: fura-2 Ca2+ add-back. It counts as cell-based. The source holds these as a separate data set.

As usually defined, the IC50 is the point on the concentration scale where inhibition reaches its midpoint. Higher therefore signals lower potency.

Where two headings read alike, the source gives them in different places.

T1 sequence (Q96D31 whole entry): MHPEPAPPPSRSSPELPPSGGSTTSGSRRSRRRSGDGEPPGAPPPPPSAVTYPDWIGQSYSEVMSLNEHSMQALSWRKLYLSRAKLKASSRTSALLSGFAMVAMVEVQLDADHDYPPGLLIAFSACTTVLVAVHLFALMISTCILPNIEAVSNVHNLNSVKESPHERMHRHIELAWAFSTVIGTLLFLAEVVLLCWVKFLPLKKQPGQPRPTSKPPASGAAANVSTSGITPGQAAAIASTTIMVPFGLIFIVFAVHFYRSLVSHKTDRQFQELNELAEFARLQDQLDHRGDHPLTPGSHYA
T1 sequence (Q13586 23-685): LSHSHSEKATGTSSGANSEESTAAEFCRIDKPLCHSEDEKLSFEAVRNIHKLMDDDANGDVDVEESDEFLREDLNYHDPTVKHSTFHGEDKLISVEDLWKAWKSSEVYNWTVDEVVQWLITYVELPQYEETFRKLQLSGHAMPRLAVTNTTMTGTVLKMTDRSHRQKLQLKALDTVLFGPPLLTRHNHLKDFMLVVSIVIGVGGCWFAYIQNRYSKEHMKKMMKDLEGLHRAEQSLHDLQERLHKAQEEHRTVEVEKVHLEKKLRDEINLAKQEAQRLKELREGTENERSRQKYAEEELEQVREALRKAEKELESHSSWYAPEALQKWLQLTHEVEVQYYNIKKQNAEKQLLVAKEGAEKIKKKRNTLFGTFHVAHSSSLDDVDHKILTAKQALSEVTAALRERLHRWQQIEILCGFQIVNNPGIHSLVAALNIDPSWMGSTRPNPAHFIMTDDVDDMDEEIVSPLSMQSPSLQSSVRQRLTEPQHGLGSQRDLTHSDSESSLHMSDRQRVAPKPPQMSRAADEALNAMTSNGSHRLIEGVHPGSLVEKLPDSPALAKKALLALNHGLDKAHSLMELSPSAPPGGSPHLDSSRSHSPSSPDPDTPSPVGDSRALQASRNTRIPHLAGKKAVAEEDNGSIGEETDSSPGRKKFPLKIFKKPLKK

On Orai1 [1], DPB162-AE registered an IC50 of around 200 nM.

For the substance DPB163-AE, the IC50 against Orai1 [2] was around 600 nM.
